# From US20030220307A1, “Remedial agent for osteoporosis” (priority 2000, published 2003)
# Legend:
# [1] = system: ovariectomized (OVX) rats; type: in vivo, rat; settings: 0.04 μg/kg per dose, subcutaneous, 5 times a week for 6 weeks; third lumbar vertebra
# Method: Seven- to nine-week-old W-I female rats (Imamichi Institute for Animal Reproduction) were ovariectomized to remove both ovaries. From the following day, 1α,25-dihydroxyvitamin D3 was subcutaneously administered 5 times a week for 6 weeks in an amount of 0.01 to 0.04 μg/kg per dose. After the last administration, 24-hour urine was sampled from each rat and blood was drawn under ether anesthesia. The rats were then euthanized and their lumbar vertebrae were isolated. The lumbar bone mineral density was measured at the third lumbar vertebra site using a dual X-ray bone mineral densitometer (DCS-600, ALOKA). The blood and urinary calcium levels and the urinary creatinine level were measured with a HITACHI automatic analyzer (Model 7170, Hitachi). Statistical processing was carried out using a software package of Statistic Analysis System (SAS). A comparison between sham operation (sham) and ovariectomy (OVX) groups was made by an unpaired t-test, while a comparison between OVX and drug treatment groups or between sham and drug treatment groups was made by Dunnett's multiple test. A P-value less than 5% was defined as a significant difference.
# [2] = system: ovariectomized (OVX) rats; test: Test in osteoporosis rat model (femur bone mineral density and blood Ca level); type: in vivo; settings: oral; for OVX-induced decrease in femur bone mineral density: every day for 8 weeks, vs OVX group, p<0.05, level remained as high as in the sham group; for blood calcium-increasing effect: in amounts where they suppressed the decrease in bone mineral density, 8 weeks, blood drawn 24 hours after last administration
# Method: The compounds of the present invention were evaluated for their effects on bone mineral density and blood calcium (Ca) level in osteoporosis rat model. The following compounds were tested: 1α,3β-dihydroxy-20(S)-(3-ethyl-3-hydroxypentyl)-9,10-secopregna-5,7,10(19),16-tetraene from Example 11 (hereinafter referred to as “Compound l”) and 1α,3β-dihydroxy-20(S)-(5-ethyl-5-hydroxy-3-heptynyl)-9,10-secopregna-5,7,10(19),16-tetraene from Example 6 (hereinafter referred to as “Compound 2”).
# Nine-month-old W-I female rats (Imamichi Institute for Animal Reproduction) were ovariectomized to remove both ovaries. From the following day, Compound 1 or Compound 2 was orally administered every day for 8 weeks. Compound 1 was given in an amount of 0.5 μg/kg, 1 μg/kg or 2 μg/kg per day in two divided doses, while Compound 2 was given in an amount of 0.125 μg/kg, 0.25 μg/kg or 0.5 μg/kg per day in two divided doses. Twenty-four hours after the last administration, blood was drawn from each rat under ether anesthesia. The rats were then euthanized and their femurs were isolated.
# The femur bone mineral density was measured using a dual X-ray bone mineral densitometer (DCS-600EX, ALOKA). The blood calcium (Ca) level was measured with a HITACHI automatic analyzer (Model 7170, Hitachi). For comparison purposes, both groups of sham operation (sham) and ovariectomy (OVX; in which rats were ovariectomized only, not followed by administration of test compounds) were similarly assayed for their blood calcium (Ca) level and bone mineral density by isolating their femurs.
# Statistical processing was carried out using a software package of Statistic Analysis System (SAS). A comparison between sham operation (sham) and ovariectomy (OVX) groups was made by an unpaired t-test, while a comparison between OVX and drug treatment groups was made by Dunnett's multiple test. A P-value less than 5% was defined as a significant difference.
Structure (SMILES),OVX-induced decrease in lumbar bone mineral density [1],OVX-induced decrease in femur bone mineral density ([2]; 1 μg/kg per day in two divided doses),OVX-induced decrease in femur bone mineral density ([2]; 2 μg/kg per day in two divided doses),blood calcium-increasing effect [2],OVX-induced decrease in femur bone mineral density ([2]; 0.125 μg/kg per day in two divided doses),OVX-induced decrease in femur bone mineral density ([2]; 0.5 μg/kg per day in two divided doses)
"C=C1/C(=C\C=C2/CCC[C@]3(C)[C@@H]([C@H](C)CCCC(C)(C)O)CC[C@@H]23)C[C@@H](O)C[C@@H]1O [1α,25-dihydroxyvitamin D3]",significantly suppressed,–,–,–,–,–
"C=C1/C(=C\C=C2/CCC[C@]3(C)C([C@@H](C)CCC(O)(CC)CC)=CCC23)C[C@@H](O)C[C@@H]1O (stereo partly drawn) [Compound 1, 1α,3β-dihydroxy-20(S)-(3-ethyl-3-hydroxypentyl)-9,10-secopregna-5,7,10(19),16-tetraene]",–,significantly suppressed,significantly suppressed,not observed,–,–
"C=C1/C(=C\C=C2/CCC[C@]3(C)C([C@@H](C)CCC#CC(O)(CC)CC)=CCC23)C[C@@H](O)C[C@@H]1O (stereo partly drawn) [Compound 2, 1α,3β-dihydroxy-20(S)-(5-ethyl-5-hydroxy-3-heptynyl)-9,10-secopregna-5,7,10(19),16-tetraene]",–,–,–,not observed,significantly suppressed,significantly suppressed
